According to article PMC9945865, “Anticancer evaluation of new organometallic ruthenium(II) flavone complexes” (RSC Medicinal Chemistry, 2022):

Tests used:
HUVEC cells = experiment: Cytotoxicity on HUVECs, trypan blue exclusion assay; type: cell-based, human; settings: 40 μM, 24 h, % of control, p > 0.05 vs control
Method: The biocompatibility of flavones (1 and 2)[30] alongside their ruthenium(II) metal complexes (1Ru and 2Ru) with HUVEC cells was established using the trypan blue exclusion assay. A concentration four times higher (i.e. 40 μM) than the highest concentration used for the tube formation antiangiogenic evaluation study (i.e. 10 μM) was selected for this cytotoxic assay.
Cytotoxic activity of treatments on HUVECs using trypan blue exclusion assay.[55] HUVECs were seeded in 96 well plates at 1 × 10^5 cells per mL and cultured for 24 h. Cells were then treated with either luteolin, the synthesised derivatives at 40 μM or culture medium (control) for 24 h. After 24 h, solutions were removed and cells washed with 100 μL PBS followed by the addition of 50 μL trypsin–EDTA and incubation for 5 min to detach the cells. 50 μL of EGM-2 media was added to the wells. 50 μL aliquots of the cell suspension were mixed with equal volume of trypan blue (TB) 0.2% v/v (prepared from 0.4% TB diluted with PBS) then the cells were counted using a haemocytometer. Number of viable and dead cells were counted manually and % cell viability of each treatment was expressed as % of control using the equation:% Cell Viability = (Cell viability in treatment/Cell viability in control) × 100where cell viability was calculated as follows:Cell Viability = Number of viable cells/Total number of cells(viable and dead).

MDA-MB-231 [1] = experiment: Cell viability, 72 h MTT assay; type: cell-based, human; settings: MDA-MB-231, 72 h MTT, mean ± SEM, n = 3
Method: The unique chemical features and coordination geometries of metal ions can add several additional binding interactions that can potentially enhance their anticancer properties for example by allowing intercalation and exploitation of their redox potential.[24] […] In that context, coordination of derivative (2) with a Ru(II) metal ligand is a promising approach to further improve its antiproliferative activity.
MCF-7 and MDA-MB-231 cells were seeded at a density of 4 × 10^4 and 2 × 10^4 cells per mL, respectively, into 96 well plates and incubated to allow the attachment for 24 h. After 24 h, the cells were treated with one of the synthesised derivatives at range of concentrations (0–100 μM) for 67 h. After 67 h, 20 μL of MTT (5 mg mL^−1) solution in PBS was added to each well and the cells were incubated for 5 h. The purple crystals formed were dissolved in 100 μL of DMSO and the plates were read at 560 nm using a SPECTRA max UV spectrometer (Bio-Rad). The data represented are the mean of the three individual experiments.

MCF-7 = experiment: Wound healing (migration) 24 h scratch assay; type: cell-based, human
Method: (§1) Malignant cell migration is essential for tumour invasion and metastasis.[1] Thus, the ability of the synthetic flavones (1 and 2) and their Ru(II) metal complexes (1Ru and 2Ru) to inhibit the migration of breast cancer cells (MCF-7 and MDA-MB-231) was assessed by an in vitro 24 h scratch assay. Low, sub-cytotoxic concentrations of 1, 10 and 20 μM were used in this evaluation.
(§2) MCF-7 or MDA-MB-231 cells were seeded in 12-well plates at 2 × 10^5 or 1 × 10^5 cells per mL, respectively, and cultured until 70–80% confluency. Afterwards, they were serum-starved (0% serum) for 24 h to inactivate the cell proliferation. A scratch was performed on the cell monolayers using a 200 μL pipette tip. Cells were then washed twice with PBS and treated with complete medium and one of the synthesized derivatives at 1, 10 or 20 μM. […] Images of the scratches were taken immediately after performing the scratch (t = 0 h) and at 24 h (t = 24 h). The area not covered by the cells was quantified using ImageJ software. % of wound closure was calculated using the following equation:100 × ((Area of scratch at t0 − Area of scratch at t24)/Area of scratch at t0)

MDA-MB-231 [2] = experiment: Wound healing (migration) 24 h scratch assay; type: cell-based, human; settings: for rise in compound 2's migration inhibition activity upon metal coordination: p < 0.05
Method: as §1, §2

VEGF i-motif DNA = experiment: I-motif DNA binding, UV-visible absorbance; set-up: species or system human
Excerpt: (§3) I-motifs are four stranded antiparallel cytosine rich DNA sequences capable of forming at telomere and promotor regions of genomic DNA.[41,42] […] Due to the presence of potential i-motif forming sequences in 69% of promoter regions in human oncogenes, they are postulated to play a key role in oncogene expression regulation.[44] VEGF and c-myc i-motif sequences are prevalent in oncogene promotor regions in many cancers including breast cancer and as such their ligands have potential anticancer roles.[45] The natural flavonol, fisetin, is reported to specifically bind to VEGF i-motif DNA and regulate its function by stabilizing its hairpin structure.[31] […] In continuation of our investigation of the effects of Ru metal complexation on the different biological activities of flavonoids, interactions with VEGF and c-myc i-motif DNA were studied using UV-vis spectroscopic techniques. […] However, 2Ru's addition led to a 1 nm hypsochromic shift of VEGF i-motif absorbance maximum from 272 to 271 nm. On the other hand, addition of the 4-oxo flavone (1) and its Ru complex (1Ru) led to minor changes in λmax of both sequences that was hypochromic (5% and 3%) with VEGF and hyperchromic (2% and 5%) in case of c-myc (Fig. 8).
(§4) UV-visible absorbance measurements and DNA UV melting studies were performed on a Cary 300 C (Varian USA) UV-visible spectrophotometer. VEGF and c-myc i-motif DNA (5′-3′ sequences ([…]) and ([…]), respectively) were purchased from Sigma-Aldrich (Gillingham, UK) and used without further purification. Na cacodylate buffer (20 mM, pH 5.5) was used for both i-motifs. DNA concentrations were determined by measuring the absorbance at 260 nm after melting using the molar extinction coefficient supplied by the manufacturer. VEGF and c-myc i-motifs were prepared for experiments by diluting with buffer solution, annealed with or without the flavonoid at 95 °C for 5 min then gently cooled to room temperature. The stock solutions of the test compounds (20 mM) were prepared in 100% sterile DMSO. These stocks were then appropriately diluted with HPLC grade water and DMSO levels were maintained below 0.1% in the test concentrations.
(§5) UV-visible absorbance measurements and UV melting studies of either free i-motifs (VEGF or c-myc), free flavone (1, 1Ru, 2 or 2Ru) or both i-motif DNA and flavone (2 μM: 2 μM) were recorded using 1.0 cm matched quartz cuvettes. First spectra were recorded in the range of 200–500 nm to determine the relevant wavelength range were no peaks were observed above 320 nm. […] UV-visible absorbance was measured at 25 °C while melting curves were collected at a heating rate of 1 °C min^−1 from 20 to 90 °C. Tm was calculated by non-linear fitting of the sigmoidal curve obtained at 295 nm.

c-myc i-motif DNA = experiment: I-motif DNA binding, UV-visible absorbance; set-up: species or system human; settings: DNA : flavonoid 2 μM : 2 μM, pH 5.5, 25 °C
Excerpt: as §3, §4, §5

[3] = DNA : flavonoid 2 μM : 2 μM, pH 5.5, 25 °C

Compound | Cell viability of HUVECs (HUVEC cells) [%] | IC50 (MDA-MB-231 [1]) [µM] | migration inhibition (MCF-7; MCF-7, 1 μM) [%] | migration inhibition (MCF-7; MCF-7, 10 μM) [%] | migration inhibition (MCF-7; MCF-7, 20 μM) [%] | migration inhibition (MDA-MB-231 [2]; MDA-MB-231, 1 μM, 24 h) [%] | rise in compound 2's migration inhibition activity upon metal coordination (MDA-MB-231 [2]; MDA-MB-231, 1 μM) [%] | migration inhibition (MDA-MB-231 [2]; MDA-MB-231, 10 μM, 24 h) [%] | migration inhibition (MDA-MB-231 [2]; MDA-MB-231, 20 μM, 24 h) [%] | rise in compound 2's migration inhibition activity upon metal coordination (MDA-MB-231 [2]; MDA-MB-231, 20 μM) [%] | hyperchromic shift (increase) at absorbance maximum λmax (VEGF i-motif DNA; [3]) [%] | hypsochromic shift of absorbance maximum (VEGF i-motif DNA; from 272 to 271 nm, 1 : 1 ratio) [nm] | hyperchromic shift (increase) at absorbance maximum λmax (c-myc i-motif DNA) [%] | effect on the migration (MDA-MB-231 [2]; MDA-MB-231, 1, 10, 20 μM, 24 h) | hypochromic change at λmax (VEGF i-motif DNA; [3]) [%]
Cc1ccc(C(C)C)cc1.[Cl-].[O-]c1cc(O)cc2oc(-c3ccc(Cl)cc3)cc(=S)c12.[Ru+2] [2Ru, chlorido [(5-oxo-κO)-7-hydroxy-2-(4′-chlorophenyl)-4H-chromen-4-thionato-κO] (η^6-p-cymene)ruthenium(II)] | ~100 | > 100 | 52 | 49 | 55 | 47 | 4 | 44 | 36 | 7 | 2 | 1 | 8 | – | –
Cc1ccc(C(C)C)cc1.O=c1cc(-c2ccc(Cl)cc2)oc2cc(O)cc([O-])c12.[Cl-].[Ru+2] [1Ru, chlorido [(5-oxo-κO)-7-hydroxy-2-(4′-chlorophenyl)-4H-chromen-4-onato-κO] (η^6-p-cymene)ruthenium(II)] | ~100 | > 100 | 50 | 42 | 41 | – | – | – | – | – | – | – | 5 | neither showed any effect | 3
